Reference: patent US20200088732A1, “METHODS FOR THE DIAGNOSIS AND TREATMENT OF PANCREATIC DUCTAL ADENOCARCINOMA” (INSERM (Institut National de la Santé et de la Recherche …, priority 2017, published 2020)

How the values were obtained:
Format in all cases: cell-based
[1] = system: Pk4A cells; test: Ex vivo peri-neural invasion assay (mouse sciatic nerve co-cultured with cancer cells)
Procedure: The day before the experiment 125,000 PK4A cells are seeded in 24 well plates in DMEM supplemented with 10% FBS and 1% antibiotic/antimycotic. 24 hrs after inhibitors (AG490 at 30 μmol/L or SC144 at 2 μmol/L) were added for 2 h. […] A mouse sciatic nerve section (5 mm) is placed in every well and cultured for 48 hrs then nerve sections are fixed 24 hrs in 4% formaldehyde and embedded in paraffin for immunohistochemistry study. Nerve sections from each condition are cut to make 4 μm sections from 2 different depths spaced by 50 μm and fixed on slides. Slides are processed for cytokeratin immunostaining by IHC as mentioned above. Cells stained with cytokeratine inside or in contact with nerve are recorded (Image J software).
Using human PDA slides, we observed that PAP/REG3A staining is associated with nerve density (Data not shown). Indeed, nerve fibers are mainly present in tissues areas where PAP/REG3A is strongly expressed. […] To further deepen the suspected role of PAP/REG3A as favoring PNI, we designed a specific ex-vivo experiment. Such experiment was done using mouse sciatic nerve fibers that we incubated with Pk4A cells+/−PAP/REG3β mouse recombinant protein (Data not shown). […]

[2] = system: Mouse pancreatic cancer cell, Pk4A; test: Cell migration assay (Boyden chambers), Pk4A cells; details: versus ACm/PAP+ media, AG490 30 μM, 1 hr 45 min, P<0.05, FIG. 2E
Procedure: (§1) Cancer cell migration was studied using PKA4 and PANC-1 cell lines under different media (medium with or without recombinant PAP/REG3A or conditioned medium from acinar cells) on Boyden chambers. Culture inserts from BD Biosciences (353097, Le pont le Claix, FR), with a porous membrane of […], were coated with a mix made of gelatin 0.1% from Sigma-Aldrich (G1890, St Quentin, FR) and fibronectin 10 μg/mL from Sigma-Aldrich (F0895, St Quentin, FR) then seeded with PK4A or PANC-1 cells (100 0000 or 75 000 cells respectively per insert) and placed into wells containing culture media (with or without recombinant PAP/REG3A). PAP/REG3A or […] were used from 0 to 500 ng/mL. Migration was performed for 4 hrs for medium with or without recombinant PAP/REG3A or β and for 1 hr 45 min for conditioned medium from acinar cells. After cleaning and briefly staining inserts with coomassie blue, migration was assessed by counting (Image J software) the number of colored cells in 8-16 high-power fields (magnification ×10).

[3] = system: Mouse pancreatic cancer cell, Pk4A; test: Cell invasion assay (matrigel Boyden chambers), PK4A cells; details: PAP/REG3β 500 ng/mL, AG490 30 μmol/L, 24 hrs, P<0.05, FIG. 2D
Procedure: Cancer cell invasion was studied using PKA4 cells on Boyden chambers according to manufacturer's protocol (354480, Corning Lifesciences, Corning, N.Y., USA). Mouse recombinant PAP/REG3β was used at 500 ng/mL and AG490 at 30 μmol/L. Culture inserts were pre-coated with matrigel matrix then seeded with PK4A (100 0000 cells per insert) and placed into wells containing the medium. Cell counting was measured after 24 hrs of incubation. After cleaning and briefly staining inserts with coomassie blue, invasion was assessed by counting (Image J software) the number of colored cells in 8-16 high-power fields (magnification ×10).

[4] = system: Human pancreatic cancer cell, Panc-1; test: Cell migration assay (Boyden chambers), Panc-1 cells; details: 100 ng/mL PAP/REG3A recombinant protein, AG490 at 30 μM, P<0.05, FIG. 2C
Procedure: as §1

Row | Compound | PNI relative to acinar cell media containing PAP/REG3β (ACm/PAP+) ([1]; Pk4A with nerve fibers and acinar cell media, SC144 2 μmol/L, P<0.05, FIG. 3B) | change of the ACm/PAP+-induced increase of Pk4A migration [2] | effect of inhibitor on PAP/REG3β-induced invasion [3] | effect of inhibitor on PAP/REG3A-induced Panc-1 migration [4] | effect of inhibitor on PAP/REG3β-induced nerve fibers invasion by pancreatic cancer cells ([1]; PAP/REG3β 500 ng/mL, AG490 30 μmol/L, FIG. 3A)
1 | O=C(NNc1nc2cc(F)ccc2n2cccc12)c1cnccn1 [SC144] | drastically reduced |  |  |  | 
2 | N#C/C(=C\c1ccc(O)c(O)c1)C(=O)NCc1ccccc1 [AG490] |  | significantly reduced | inhibited | impair PAP/REG3A effect on Panc-1 migration | impairs significantly
